{"source": "patent US6825230B2", "about": "“Spiro and dispiro 1,2,4-trixolane antimalarials” (Medicines for Malaria Venture MMV, priority 2002, dated 2004)", "tested_on": "ANKA strain of P. berghei", "assay": "Single dose STI in vivo screen in infected mice", "set-up": "species or system Plasmodium berghei", "conditions": "for Survival (days) 10 mg/kg po: single 10 mg/kg po in 3% ethanol and 7% Tween 80; for Survival (days) 10 mg/kg po / Survival (days) 10 mg/kg SSV po / Survival (days) 10 mg/kg sc: untreated 6-7 days; for Activity (%) 10 mg/kg po: single 10 mg/kg po in 3% ethanol and 7% Tween 80 on day 1 post-infection; for Survival (days) 10 mg/kg SSV po: single 10 mg/kg po in SSV; for Survival (days) 10 mg/kg sc: single 10 mg/kg sc in 3% ethanol and 7% Tween 80; for Activity (%) 10 mg/kg sc: single 10 mg/kg sc in 3% ethanol and 7% Tween 80 on day 1 post-infection; for Survival (days) 3 mg/kg SSV po / Activity (%) 3 mg/kg SSV po: single 3 mg/kg po in SSV", "protocol": "In the single dose STI in vivo screen, Moro SPF or NMRI mice infected with the ANKA strain of P. berghei (groups of three mice) were treated on day one post-infection with trioxolanes dissolved or suspended in 3% ethanol and 7% Tween 80. […] SSV consists of 0.5% w/v CMC, 0.5% v/v benzyl alcohol, 0.4% v/v Tween 80, and 0.9% w/v sodium chloride in water. Antimalarial activity was measured by percent reduction in parasitemia on day three post-infection and survival times compared to an untreated control group. Survival to day 30 post-infection is considered to be a cure. […] Other factors influencing antimalarial activity include the stability of carbon radicals formed by β-scission subsequent to the initial electron transfer to the peroxide bond and the influence of steric effects remote from the peroxide bond on the interactions between carbon radicals and potential drug targets.\nMoro NMRI male mice (Fu Albino specific pathogen free) weighing 18±2 g were infected intravenously (i.v.) with 2×10^7 P. berghei ANKA strain-infected erythrocytes from donor mice on day 0 of the experiment. From donor mice with circa 30% parasitemia, heparinized blood was taken and diluted in physiological saline to 10^8 parasitized erythrocytes per ml. An aliquot (0.2 ml) of this suspension was injected i.v. into experimental and control groups of mice. […] Throughout the experiments, mice were kept in groups of three or five animals in Makrolon type II cages in an air-conditioned animal room at 22 to 23° C.\nThey were administered per os (p.o.) in a total volume of 0.01 ml per gram of mouse. The activity of the compound was determined by a variety of methods outlined in subsequent sections. Survival time was also recorded, and survival to day 30 post-infection was considered to be a cure.", "key": {"[1]": {"conditions": "percent reduction in parasitemia on day 3"}, "[2]": {"conditions": "single 10 mg/kg po in standard suspending vehicle (SSV) on day 1 post-infection, percent reduction in parasitemia on day 3"}}}
{"smiles": "O=C(c1ccncc1)N1CCC2(CC1)OOC1(O2)C2CC3CC(C2)CC1C3", "note": "(stereo not shown) [OZ100, Adamantane-2-spiro-3′-8′-(4′-pyridinylcarbonyl)-1′,2′,4′-trioxa-8′-azaspiro[4.5]decane]", "values": [{"measurement": "Survival (days) 10 mg/kg po", "result": 6.7, "unit": "days"}, {"measurement": "Activity (%) 10 mg/kg po", "setting": "[1]", "result": 61, "unit": "%"}, {"measurement": "Survival (days) 10 mg/kg SSV po", "result": 6.3, "unit": "days"}, {"measurement": "Activity (%) 10 mg/kg SSV po", "setting": "[2]", "result": 36, "unit": "%"}, {"measurement": "Survival (days) 10 mg/kg sc", "result": 7.0, "unit": "days"}, {"measurement": "Activity (%) 10 mg/kg sc", "setting": "[1]", "result": 80, "unit": "%"}]}
{"smiles": "O=C(COc1ccc(Cl)cc1)N1CCC2(CC1)OOC1(O2)C2CC3CC(C2)CC1C3", "note": "(stereo not shown) [OZ101, Adamantane-2-spiro-3′-8′-(4′-chlorophenoxyacetyl)-1′,2′,4′-trioxa-8′-azaspiro[4.5]decane]", "values": [{"measurement": "Survival (days) 10 mg/kg po", "result": 6.3, "unit": "days"}, {"measurement": "Activity (%) 10 mg/kg po", "setting": "[1]", "result": 44, "unit": "%"}, {"measurement": "Survival (days) 10 mg/kg SSV po", "result": 5.3, "unit": "days"}, {"measurement": "Activity (%) 10 mg/kg SSV po", "setting": "[2]", "result": 0, "unit": "%"}, {"measurement": "Survival (days) 10 mg/kg sc", "result": 13, "unit": "days"}, {"measurement": "Activity (%) 10 mg/kg sc", "setting": "[1]", "result": 99.97, "unit": "%"}]}
{"smiles": "O=C(Nc1ccccc1)N1CCC2(CC1)OOC1(O2)C2CC3CC(C2)CC1C3", "note": "(stereo not shown) [OZ102, Adamantane-2-spiro-3′-8′-(phenylaminocarbonyl)-1′,2′,4′-trioxa-8′-azaspiro[4.5]decane]", "values": [{"measurement": "Survival (days) 10 mg/kg po", "result": 7.0, "unit": "days"}, {"measurement": "Activity (%) 10 mg/kg po", "setting": "[1]", "result": 92, "unit": "%"}, {"measurement": "Survival (days) 10 mg/kg SSV po", "result": 6.7, "unit": "days"}, {"measurement": "Activity (%) 10 mg/kg SSV po", "setting": "[2]", "result": 73, "unit": "%"}, {"measurement": "Survival (days) 10 mg/kg sc", "result": 19.7, "unit": "days"}, {"measurement": "Activity (%) 10 mg/kg sc", "setting": "[1]", "result": 99.97, "unit": "%"}]}
{"smiles": "O=C(Cn1ccnc1)N1CCC2(CC1)OOC1(O2)C2CC3CC(C2)CC1C3", "note": "(stereo not shown) [OZ103, Adamantane-2-spiro-3′-8′-(1′H-imidazol-1′-ylacetyl)-1′,2′,4′-trioxa-8′-azaspiro[4.5]decane]", "values": [{"measurement": "Survival (days) 10 mg/kg po", "result": 7.3, "unit": "days"}, {"measurement": "Activity (%) 10 mg/kg po", "setting": "[1]", "result": 86, "unit": "%"}, {"measurement": "Survival (days) 10 mg/kg SSV po", "result": 6.7, "unit": "days"}, {"measurement": "Activity (%) 10 mg/kg SSV po", "setting": "[2]", "result": 63, "unit": "%"}, {"measurement": "Survival (days) 10 mg/kg sc", "result": 7.3, "unit": "days"}, {"measurement": "Activity (%) 10 mg/kg sc", "setting": "[1]", "result": 87, "unit": "%"}]}
{"smiles": "Cc1ccc(NC(=O)N2CCC3(CC2)OOC2(O3)C3CC4CC(C3)CC2C4)cc1", "note": "(stereo not shown) [OZ142]", "values": [{"measurement": "Survival (days) 10 mg/kg po", "result": 6.0, "unit": "days"}, {"measurement": "Activity (%) 10 mg/kg po", "setting": "[1]", "result": 0, "unit": "%"}, {"measurement": "Survival (days) 10 mg/kg SSV po", "result": 6.3, "unit": "days"}, {"measurement": "Activity (%) 10 mg/kg SSV po", "setting": "[2]", "result": 2, "unit": "%"}, {"measurement": "Survival (days) 10 mg/kg sc", "result": 14.3, "unit": "days"}, {"measurement": "Activity (%) 10 mg/kg sc", "setting": "[1]", "result": 99.98, "unit": "%"}]}
{"smiles": "O=C(N1CCOCC1)N1CCC2(CC1)OOC1(O2)C2CC3CC(C2)CC1C3", "note": "(stereo not shown) [OZ188, Adamantane-2-spiro-3′-8′-(4′-morpholinylcarbonyl)-1′,2′,4′-trioxa-8′-azaspiro[4.5]decane]", "values": [{"measurement": "Survival (days) 10 mg/kg po", "result": 8.7, "unit": "days"}, {"measurement": "Activity (%) 10 mg/kg po", "setting": "[1]", "result": 93, "unit": "%"}, {"measurement": "Survival (days) 10 mg/kg SSV po", "result": 10.0, "unit": "days"}, {"measurement": "Activity (%) 10 mg/kg SSV po", "setting": "[2]", "result": 98, "unit": "%"}, {"measurement": "Survival (days) 10 mg/kg sc", "result": 9.0, "unit": "days"}, {"measurement": "Activity (%) 10 mg/kg sc", "setting": "[1]", "result": 99.87, "unit": "%"}]}
{"smiles": "O=C(Nc1ccc(Cl)cc1)N1CCC2(CC1)OOC1(O2)C2CC3CC(C2)CC1C3", "note": "(stereo not shown) [OZ192, Adamantane-2-spiro-3′-8′-[(4′-chlorophenylamino)carbonyl]-1′,2′,4′-trioxa-8′-azaspiro[4.5]decane]", "values": [{"measurement": "Survival (days) 10 mg/kg po", "result": 6.0, "unit": "days"}, {"measurement": "Activity (%) 10 mg/kg po", "setting": "[1]", "result": 38, "unit": "%"}, {"measurement": "Survival (days) 10 mg/kg SSV po", "result": 7.0, "unit": "days"}, {"measurement": "Activity (%) 10 mg/kg SSV po", "setting": "[2]", "result": 45, "unit": "%"}, {"measurement": "Survival (days) 10 mg/kg sc", "result": 13.7, "unit": "days"}, {"measurement": "Activity (%) 10 mg/kg sc", "setting": "[1]", "result": 99.98, "unit": "%"}]}
{"smiles": "O=C(NC[C@H]1CC[C@]2(CC1)OO[C@]1(O2)C2CC3CC(C2)CC1C3)N1CCOCC1", "note": "[OZ272]", "values": [{"measurement": "Survival (days) 3 mg/kg SSV po", "result": 6.6, "unit": "days"}, {"measurement": "Activity (%) 3 mg/kg SSV po", "setting": "[1]", "result": 49, "unit": "%"}, {"measurement": "Survival (days) 10 mg/kg SSV po", "result": 10.3, "unit": "days"}, {"measurement": "Activity (%) 10 mg/kg SSV po", "setting": "[2]", "result": 98, "unit": "%"}]}
{"smiles": "OC1(Cc2nc3ccccc3s2)CCC2(CC1)OOC1(O2)C2CC3CC(C2)CC1C3", "note": "(stereo not shown) [OZ276]", "values": [{"measurement": "Survival (days) 10 mg/kg SSV po", "result": "7.3/ND days"}, {"measurement": "Activity (%) 10 mg/kg SSV po", "setting": "[2]", "result": "17/ND %"}]}
{"smiles": "O=C(NC[C@H]1CC[C@]2(CC1)OOC1(O2)C2CC3CC(C2)CC1C3)c1ccccc1O", "note": "(stereo partly shown) [OZ280]", "values": [{"measurement": "Activity (%) 10 mg/kg SSV po", "setting": "po, 10 mg/kg", "result": "0/ND %"}, {"measurement": "Survival (days) 10 mg/kg SSV po", "result": 5.7, "unit": "ND days"}]}
{"smiles": "O=C(NC[C@H]1CC[C@]2(CC1)OOC1(O2)C2CC3CC(C2)CC1C3)c1ccc(O)nc1", "note": "(stereo partly shown) [OZ282]", "values": [{"measurement": "Survival (days) 3 mg/kg SSV po", "result": 7.2, "unit": "days"}, {"measurement": "Activity (%) 3 mg/kg SSV po", "setting": "[1]", "result": 53, "unit": "%"}, {"measurement": "Survival (days) 10 mg/kg SSV po", "result": 8.3, "unit": "days"}, {"measurement": "Activity (%) 10 mg/kg SSV po", "setting": "[2]", "result": 98.5, "unit": "%"}]}
{"smiles": "Nc1ncccc1C(=O)NC[C@H]1CC[C@]2(CC1)OOC1(O2)C2CC3CC(C2)CC1C3", "note": "(stereo partly shown) [OZ284]", "values": [{"measurement": "Survival (days) 3 mg/kg SSV po", "result": 7.8, "unit": "days"}, {"measurement": "Activity (%) 3 mg/kg SSV po", "setting": "[1]", "result": 61, "unit": "%"}, {"measurement": "Survival (days) 10 mg/kg SSV po", "result": 9.0, "unit": "days"}, {"measurement": "Activity (%) 10 mg/kg SSV po", "setting": "[2]", "result": 97, "unit": "%"}]}
